Active and inactive are the calls of the source. No rule for the calls is given here.
Each compound was assayed on HeLa, chromatin condensation phenotype imaging (assay: condensed chromatin phenotype in HeLa cells – imaging, IC50, dose response (AID 1117350)).

Row | Structure (SMILES) | IC50
1 | O=C(CCl)c1ccc(Cl)cc1Cl | 0.541 µM
2 | CCCCCCCCCCCC[N+](C)(C)Cc1ccccc1 | > 10 µM (inactive)
3 | CCCCCCC[N+](CC)(CC)CCCCc1ccc(Cl)cc1 | > 10 µM (inactive)
4 | O=C(O)CCCc1ccc(N(CCCl)CCCl)cc1 | > 10 µM (inactive)
5 | CCCCCCCCCCCCCCCC[N+](C)(C)Cc1ccccc1 | > 10 µM (inactive)
6 | Oc1c(Cl)cc(Cl)cc1Sc1cc(Cl)cc(Cl)c1O | > 10 µM (inactive)
7 | CC(C)=CCC/C(C)=C/CC/C(C)=C/C(=O)OCC(=O)[C@@]1(O)CC[C@H]2[C@@H]3CCC4=CC(=O)C=C[C@]4(C)[C@H]3[C@@H](O)C[C@@]21C | > 10 µM (inactive)
8 | O=c1c(-c2ccccc2)c1-c1ccccc1 | > 10 µM (inactive)
9 | CC[C@H](C)C(=O)O[C@H]1C[C@@H](C)C=C2C=C[C@H](C)[C@H](CC[C@@H]3C[C@@H](O)CC(=O)O3)[C@H]21 | > 10 µM (inactive)
10 | OC[C@H]1O[C@@H](n2cnc3c(=S)nc[nH]c32)[C@H](O)[C@@H]1O | > 10 µM (inactive)
11 | NC(=NCCCCCCN=C(N)/N=C(\N)Nc1ccc(Cl)cc1)/N=C(\N)Nc1ccc(Cl)cc1 | > 10 µM (inactive)
12 | COc1cc(NC(C)CCCN)c2ncccc2c1 (configuration not stated) | > 10 µM (inactive)
13 | CC(C)=CCOc1ccc(/C=C/C(=O)c2ccc(OCC=C(C)C)cc2OCC(=O)O)cc1 | > 10 µM (inactive)
14 | CC(=O)O[C@@]12CO[C@@H]1C[C@H](O)[C@@]1(C)C(=O)[C@H](O)C3=C(C)[C@@H](OC(=O)[C@H](O)[C@@H](NC(=O)OC(C)(C)C)c4ccccc4)C[C@@](O)([C@@H](OC(=O)c4ccccc4)[C@H]21)C3(C)C | 0.00317 µM
15 | Cc1ccc([N+](=O)[O-])[c]2c1[O][Hg]2 | 1.22 µM
16 | C[C@@H](O[C@H]1OCCN(Cc2n[nH]c(=O)[nH]2)[C@H]1c1ccc(F)cc1)c1cc(C(F)(F)F)cc(C(F)(F)F)c1 | > 10 µM (inactive)
17 | O[C@@H](CNC[C@H](O)[C@H]1CCc2cc(F)ccc2O1)[C@@H]1CCc2cc(F)ccc2O1 | > 10 µM (inactive)
18 | CCCCCCCCCCCCCCCCCCNC(=O)OC1CCN(C(=O)OC[C@H](COC(=O)N(Cc2cccc[n+]2CC)C(=O)c2ccccc2OC)OC)CC1 | > 10 µM (inactive)
19 | COc1cccc2c1C(=O)c1c(O)c3c(c(O)c1C2=O)C[C@@](O)(C(C)=O)C[C@@H]3O[C@H]1C[C@H](N)[C@H](O)[C@H](C)O1 | 0.374 µM
20 | Cc1ccc(Nc2nccc(N(C)c3ccc4c(C)n(C)nc4c3)n2)cc1S(N)(=O)=O | > 10 µM (inactive)
21 | CCC(COC(=O)c1cc(OC)c(OC)c(OC)c1)(c1ccccc1)N(C)C (configuration not stated) | > 10 µM (inactive)
22 | Cc1nc(Nc2ncc(C(=O)Nc3c(C)cccc3Cl)s2)cc(N2CCN(CCO)CC2)n1 | > 10 µM (inactive)

Row | Structure (SMILES) | IC50
23 | COc1cc(NCc2ccc3nc(N)nc(N)c3c2C)cc(OC)c1OC | > 10 µM (inactive)
24 | COC(=O)c1nc(Cl)c(Cl)nc1N | 0.868 µM
25 | Oc1c(I)cc(Cl)c2cccnc12 | > 10 µM (inactive)
26 | O=C1C(I)=CC(=C(c2cc(I)c(O)c(I)c2)c2ccccc2C(=O)O)C=C1I | > 10 µM (inactive)
27 | COc1cccc2c1C(=O)c1c(O)c3c(c(O)c1C2=O)C[C@@](O)(C(=O)CO)CC3OC1CC(N2CCOC(OC)C2)C(O)C(C)O1 (some centres not stated) | 0.0118 µM
28 | O=C(O)CCc1nc2ccccc2[nH]1 | > 10 µM (inactive)
29 | CCCCc1ccc2nc(NC(=O)OC)[nH]c2c1 | 0.00717 µM
30 | C[C@@H]1C[C@H]2[C@@H]3CCC4=CC(=O)C=C[C@]4(C)[C@@]3(Cl)[C@@H](O)C[C@]2(C)[C@@]1(OC(=O)c1ccco1)C(=O)CCl | > 10 µM (inactive)
31 | CN(C)CCOC(c1ccccc1)c1ccc(Br)cc1 (configuration not stated) | > 10 µM (inactive)
32 | CN(C)CCC=C1c2ccccc2CCc2ccccc21 | > 10 µM (inactive)
33 | CC(=O)Oc1ccccc1C(=O)Nc1ncc([N+](=O)[O-])s1 | > 10 µM (inactive)
34 | O=Cc1ccc(O)c(O)c1O | > 10 µM (inactive)
35 | NC(N)=NN=C(/C=C/c1ccc([N+](=O)[O-])o1)/C=C/c1ccc([N+](=O)[O-])o1 | > 10 µM (inactive)
36 | COCCOC(=O)C1=C(C)NC(C)=C(C(=O)OC/C=C/c2ccccc2)C1c1cccc([N+](=O)[O-])c1 (configuration not stated) | > 10 µM (inactive)
37 | CN1CC[C@H](c2c(O)cc(O)c3c(=O)cc(-c4ccccc4Cl)oc23)[C@H](O)C1 | 0.0807 µM
38 | CCCCCCCCCCCCCCCC[N+](C)(C)CCN(Cc1ccc(OC)cc1)c1ncccn1 | > 10 µM (inactive)
39 | O=c1[nH]c(=O)n([C@H]2C[C@H](O)[C@@H](CO)O2)cc1F | > 10 µM (inactive)
40 | CC(C)OC(=O)OCOP(=O)(CO[C@H](C)Cn1cnc2c(N)ncnc21)OCOC(=O)OC(C)C | > 10 µM (inactive)
41 | CO[C@@H]1[C@@H](OC)[C@H](C)[C@@](O)(CC(=O)O)O[C@H]1[C@H](C)[C@H]1O[C@@]2(CC[C@@](C)([C@H]3CC[C@@](C)([C@@H]4O[C@@H]([C@H]5O[C@](C)(O)[C@H](C)C[C@@H]5C)C[C@@H]4OC4C[C@H](OC)[C@@H](OC)[C@H](C)O4)O3)O2)C[C@H](O)[C@H]1C (some centres not stated) | > 10 µM (inactive)
42 | O=C1[C@H]2CCCC[C@H]2C(=O)N1CCCCN1CCN(c2nsc3ccccc23)CC1 | > 10 µM (inactive)
43 | Cc1cc(O)c2ccccc2c1O | > 10 µM (inactive)
44 | COc1ccc2cc1Oc1ccc(cc1)C[C@H]1c3c(cc4c(c3Oc3cc5c(cc3OC)CCN(C)[C@@H]5C2)OCO4)CCN1C | > 10 µM (inactive)

Row | Structure (SMILES) | IC50
45 | CC(=O)[C@]1(O)Cc2c(O)c3c(c(O)c2[C@@H](O[C@H]2C[C@H](N)[C@H](O)[C@H](C)O2)C1)C(=O)c1ccccc1C3=O | 0.659 µM
46 | CCc1oc2ccccc2c1C(=O)c1cc(I)c(O)c(I)c1 | > 10 µM (inactive)
47 | CCN(CC)CCOc1ccc(C(O)(Cc2ccc(Cl)cc2)c2ccc(C)cc2)cc1 (configuration not stated) | > 10 µM (inactive)
48 | COc1c(C)c2c(c(O)c1C/C=C(\C)CCC(=O)OCCN1CCOCC1)C(=O)OC2 | > 10 µM (inactive)
49 | CCN(CC)CCOc1ccc(/C(=C(\Cl)c2ccccc2)c2ccccc2)cc1 | > 10 µM (inactive)
50 | Fc1ccc(C(OCCN2CCN(CCCc3ccccc3)CC2)c2ccc(F)cc2)cc1 | > 10 µM (inactive)
51 | Cc1cc(C2CCCCC2)n(O)c(=O)c1 | > 10 µM (inactive)
52 | CO[C@@]12[C@H](COC(N)=O)C3=C(C(=O)C(C)=C(N)C3=O)N1C[C@@H]1N[C@@H]12 | > 10 µM (inactive)
53 | CCN(CC)CCNC(=O)c1c(C)[nH]c(/C=C2\C(=O)Nc3ccc(F)cc32)c1C | 3.81 µM
54 | CCC(=O)c1ccc(O)cc1 | > 10 µM (inactive)
55 | Cc1ccccc1C(=O)Nc1ccc(C(=O)N2CCCC(N(C)C)c3ccccc32)cc1 (configuration not stated) | 3.41 µM
56 | O=[N+]([O-])c1ccc(Oc2ccc(N=C=S)cc2)cc1 | > 10 µM (inactive)
57 | CC(CC1c2ccccc2CCc2ccccc21)CN(C)C (configuration not stated) | > 10 µM (inactive)
58 | CCc1nc(N)nc(N)c1-c1ccc(Cl)cc1 | > 10 µM (inactive)
59 | O=C(CCBr)N1CCN(C(=O)CCBr)CC1 | > 10 µM (inactive)
60 | CC(C)(C)C1CCC(CC2=C(O)c3ccccc3C(=O)C2=O)CC1 (configuration not stated) | > 10 µM (inactive)
61 | CN1CCCC(CC2c3ccccc3Sc3ccccc32)C1 (configuration not stated) | > 10 µM (inactive)
62 | O=[N+]([O-])c1ccc(O)c2ncccc12 | > 10 µM (inactive)
63 | COc1ccc(-c2nc3ccc(C4=NNC(=O)CC4C)cc3[nH]2)cc1 (configuration not stated) | > 10 µM (inactive)
64 | COc1ccc2cc3[n+](cc2c1OC)CCc1cc2c(cc1-3)OCO2 | > 10 µM (inactive)
65 | CCCCCCCCCCCCCC[N+](C)(C)C | > 10 µM (inactive)
66 | CC[C@@H]([C@H](C)O)n1ncn(-c2ccc(N3CCN(c4ccc(OC[C@@H]5CO[C@@](Cn6cncn6)(c6ccc(F)cc6F)C5)cc4)CC3)cc2)c1=O | > 10 µM (inactive)

Row | Structure (SMILES) | IC50
67 | CCCNCC(O)COc1ccccc1C(=O)CCc1ccccc1 (configuration not stated) | > 10 µM (inactive)
68 | Cc1ccc2nc(N)[nH]c(=O)c2c1Sc1ccncc1 | > 10 µM (inactive)
69 | COC(=O)[C@H]1[C@H]2C[C@@H]3c4[nH]c5cc(OC)ccc5c4CCN3C[C@H]2C[C@@H](OC(=O)/C=C/c2ccc(O)c(OC)c2)[C@@H]1OC | > 10 µM (inactive)
70 | C[C@@H]1C[C@@H]([C@H](O)CC2CC(=O)NC(=O)C2)C(=O)[C@@H](C)C1 | > 10 µM (inactive)
71 | CC[C@H]1CN2CCc3cc(OC)c(OC)cc3[C@@H]2C[C@@H]1C[C@H]1NCCc2cc(OC)c(OC)cc21 | 0.948 µM
72 | CCC(C)n1ncn(-c2ccc(N3CCN(c4ccc(OC[C@H]5CO[C@](Cn6cncn6)(c6ccc(Cl)cc6Cl)O5)cc4)CC3)cc2)c1=O (some centres not stated) | > 10 µM (inactive)
73 | CCN1/C(=C/C=C/c2sc3ccccc3[n+]2CC)Sc2ccccc21 | 4.48 µM
74 | Cc1cc2c(C(C)C)c(O)c(O)c(C=O)c2c(O)c1-c1c(C)cc2c(C(C)C)c(O)c(O)c(C=O)c2c1O | > 10 µM (inactive)
75 | Cc1nc2ccccc2n1Cc1ccc(Cl)cc1 | > 10 µM (inactive)
76 | CCN(CC)CCCC(C)Nc1c2ccc(Cl)cc2nc2ccc(OC)cc12 (configuration not stated) | 8.58 µM (inactive)
77 | Cn1cnc([N+](=O)[O-])c1Sc1ncnc2nc[nH]c12 | > 10 µM (inactive)
78 | Oc1c(Cl)cc(Cl)c2cccnc12 | > 10 µM (inactive)
79 | CCN(CCCCOC(=O)c1ccc(OC)c(OC)c1)C(C)Cc1ccc(OC)cc1 (configuration not stated) | > 10 µM (inactive)
80 | COC(=O)Nc1nc2ccc(C(=O)c3ccccc3)cc2[nH]1 | 0.0648 µM
81 | O=C1c2c(O)ccc(O)c2C(=O)c2c(NCCNCCO)ccc(NCCNCCO)c21 | > 10 µM (inactive)
82 | Nc1nc(=O)n([C@@H]2O[C@H](CO)[C@@H](O)[C@@H]2F)cc1I | > 10 µM (inactive)
83 | COc1cccc2c1C(=O)c1c(O)c3c(c(O)c1C2=O)C[C@@](O)(C(=O)CO)C[C@@H]3O[C@H]1C[C@H](N)[C@H](O[C@@H]2CCCCO2)[C@H](C)O1 | > 10 µM (inactive)
84 | CCc1oc2ccccc2c1C(=O)c1cc(Br)c(O)c(Br)c1 | > 10 µM (inactive)
85 | C[n+]1c2cc(N)ccc2cc2ccc(N)cc21 (tested in a mixture with another compound) | 2.19 µM
86 | Cc1cc(N)c2ccccc2[n+]1CCCCCCCCCC[n+]1c(C)cc(N)c2ccccc21 | > 10 µM (inactive)
87 | CC(C)(C)C(=O)OCOP(=O)(COCCn1cnc2c(N)ncnc21)OCOC(=O)C(C)(C)C | > 10 µM (inactive)

— PubChem BioAssay AID1117350 (Cheminformatics & Chemogenomics Research Group (CCRG), …, 2015)
